From PubChem BioAssay (NCI)
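Grown in 96-well plates, cells were treated for 48 hours with each compound at five concentrations. Insufficient inhibition: endpoint recorded as highest concentration tested. At the TGI there is no net growth.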

Key:
Test in all cases: inhibition of tumour cell growth, NCI panel, 48 h
[1] = test system: SF-268 CNS
[2] = test system: HL-60(TB) leukemia
[3] = test system: TK-10 renal
[4] = test system: LOX IMVI melanoma
[5] = test system: MOLT-4 leukemia
[6] = test system: PC-3 prostate
[7] = test system: HS 578T breast
[8] = test system: NCI-H23 lung
[9] = test system: IGROV1 ovarian
[10] = test system: SK-OV-3 ovarian
[11] = test system: ACHN renal
[12] = test system: HCT-15 colon
[13] = test system: M14 melanoma
[14] = test system: MDA-MB-435
[15] = test system: MALME-3M melanoma
[16] = test system: OVCAR-4 ovarian
[17] = test system: RXF 393 renal
[18] = test system: SK-MEL-5 melanoma
[19] = test system: UACC-257 melanoma
[20] = test system: SK-MEL-2 melanoma
[21] = test system: HOP-92 NSCLC
[22] = test system: CCRF-CEM leukemia
[23] = test system: A549 NSCLC
[24] = test system: HCT-116 colon
[25] = test system: NCI-H226 lung
[26] = test system: UO-31 renal
[27] = test system: U251 CNS
[28] = test system: HT29 colon
[29] = test system: 786-0 renal
[30] = test system: T-47D breast
[31] = test system: MDA-N
[32] = test system: A498 renal
[33] = test system: OVCAR-3 ovarian
[34] = test system: MDA-MB-231 breast
[35] = test system: SN12C renal
[36] = test system: COLO 205 colon
[37] = test system: SNB-19 CNS
[38] = test system: K-562 leukemia
[39] = test system: NCI/ADR-RES ovarian
[40] = test system: UACC-62 melanoma
[41] = test system: CAKI-1 renal
[42] = test system: EKVX NSCLC
[43] = test system: KM12 colon
[44] = test system: NCI-H460 lung
[45] = test system: BT-549 breast
[46] = test system: HCC-2998 colon
[47] = test system: SK-MEL-28 melanoma
[48] = test system: SF-295 CNS
[49] = test system: MCF7 breast
[50] = test system: HOP-62 NSCLC
[51] = test system: OVCAR-5 ovarian
[52] = test system: NCI-H522 lung
[53] = test system: SW-620 colon
[54] = test system: DU-145 prostate
[55] = test system: OVCAR-8 ovarian
[56] = test system: SNB-75 CNS
[57] = test system: RPMI-8226 leukemia

## CCCCN(c1ccccc1)c1ncnc2c1cnn2C
[1]
  TGI: > 100 µM
[2]
  TGI: 47.6 µM
[3]
  TGI: > 100 µM
[4]
  TGI: > 100 µM
[5]
  TGI: 40.8 µM
[6]
  TGI: > 100 µM
[7]
  TGI: 76.4 µM
[8]
  TGI: > 100 µM
[9]
  TGI: > 100 µM
[10]
  TGI: > 100 µM
[11]
  TGI: > 100 µM
[12]
  TGI: > 100 µM
[13]
  TGI: > 100 µM
[14]
  TGI: > 100 µM
[15]
  TGI: 77.7 µM
[16]
  TGI: > 100 µM
[17]
  TGI: 89.4 µM
[18]
  TGI: > 100 µM
[19]
  TGI: 95.8 µM
[20]
  TGI: 78.1 µM
[21]
  TGI: > 100 µM
[22]
  TGI: 49.6 µM
[23]
  TGI: > 100 µM
[24]
  TGI: > 100 µM
[25]
  TGI: > 100 µM
[26]
  TGI: > 100 µM
[27]
  TGI: > 100 µM
[28]
  TGI: > 100 µM
[29]
  TGI: > 100 µM
[30]
  TGI: 99.1 µM
[31]
  TGI: > 100 µM
[32]
  TGI: 71.1 µM
[33]
  TGI: > 100 µM
[34]
  TGI: > 100 µM
[35]
  TGI: > 100 µM
[36]
  TGI: > 100 µM
[37]
  TGI: > 100 µM
[38]
  TGI: > 100 µM
[39]
  TGI: 72.7 µM
[40]
  TGI: > 100 µM
[41]
  TGI: > 100 µM
[42]
  TGI: > 100 µM
[43]
  TGI: > 100 µM
[44]
  TGI: > 100 µM
[45]
  TGI: 62.1 µM
[46]
  TGI: > 100 µM
[47]
  TGI: > 100 µM
[48]
  TGI: > 100 µM
[49]
  TGI: > 100 µM
[50]
  TGI: > 100 µM
[51]
  TGI: > 100 µM
[52]
  TGI: 53.6 µM
[53]
  TGI: > 100 µM
[54]
  TGI: > 100 µM
[55]
  TGI: > 100 µM
[56]
  TGI: 55.9 µM
[57]
  TGI: 48 µM
